What was measured:
TRPV1 receptor = biological target: T1, TRPV1 receptor (Rattus norvegicus, UniProt O35433); assay: Inhibition of the current induced with capsaicin on rat DRGs (whole-cell patch-clamp); format: cell-based; conditions: DRG neuron; compound at 10 nM; capsaicin 1 μM; newborn rat DRG neurons
T1 construct: The neurons of the DRG naturally express the TRPV1 receptor; endogenous in cells; host or cells: primary culture of newborn rat dorsal root ganglion (DRG) neurons
Protocol: Test of Inhibition of the Current Induced with Capsaicin on Rat DRGs
Primary Culture of Rat Dorsal Root Ganglion (DRG) Cells:
The neurons of the DRG naturally express the TRPV1 receptor.
The primary cultures of newborn rat DRGs are prepared using 1-day-old rats. Briefly, after dissection, the ganglions are trypsinized and the cells dissociated by mechanical trituration. The cells are resuspended in an Eagle basal culture medium containing 10% fetal calf serum, 25 mM KCl, 2 mM glutamine, 100 μg/ml gentamicin and 50 ng/ml of NGF, and then deposited on glass slides coated with laminin (0.25×10^6 cells per slide), which are then placed in Corning 12-well dishes. The cells are incubated at 37° C. in a humidified atmosphere containing 5% CO2 and 95% air. […]
The measuring chambers (volume 800 μl) containing the cell preparation are placed on the platform of an inverted microscope (Olympus IMT2) equipped with Hoffman optics (Modulation Contrast, New York) and observed at a magnification of 400×. […] The overall currents (membrane potential set at −60 mV) are recorded with an Axopatch 1D amplifier (Axon Instruments, Foster city, Calif.), connected to a PC running the Pclamp8 software (Axon Instrument). The current plots are recorded on paper and simultaneously digitized (sampling frequency 15 to 25 Hz) and acquired on the hard drive of the PC. […]

T1 sequence (O35433 whole entry): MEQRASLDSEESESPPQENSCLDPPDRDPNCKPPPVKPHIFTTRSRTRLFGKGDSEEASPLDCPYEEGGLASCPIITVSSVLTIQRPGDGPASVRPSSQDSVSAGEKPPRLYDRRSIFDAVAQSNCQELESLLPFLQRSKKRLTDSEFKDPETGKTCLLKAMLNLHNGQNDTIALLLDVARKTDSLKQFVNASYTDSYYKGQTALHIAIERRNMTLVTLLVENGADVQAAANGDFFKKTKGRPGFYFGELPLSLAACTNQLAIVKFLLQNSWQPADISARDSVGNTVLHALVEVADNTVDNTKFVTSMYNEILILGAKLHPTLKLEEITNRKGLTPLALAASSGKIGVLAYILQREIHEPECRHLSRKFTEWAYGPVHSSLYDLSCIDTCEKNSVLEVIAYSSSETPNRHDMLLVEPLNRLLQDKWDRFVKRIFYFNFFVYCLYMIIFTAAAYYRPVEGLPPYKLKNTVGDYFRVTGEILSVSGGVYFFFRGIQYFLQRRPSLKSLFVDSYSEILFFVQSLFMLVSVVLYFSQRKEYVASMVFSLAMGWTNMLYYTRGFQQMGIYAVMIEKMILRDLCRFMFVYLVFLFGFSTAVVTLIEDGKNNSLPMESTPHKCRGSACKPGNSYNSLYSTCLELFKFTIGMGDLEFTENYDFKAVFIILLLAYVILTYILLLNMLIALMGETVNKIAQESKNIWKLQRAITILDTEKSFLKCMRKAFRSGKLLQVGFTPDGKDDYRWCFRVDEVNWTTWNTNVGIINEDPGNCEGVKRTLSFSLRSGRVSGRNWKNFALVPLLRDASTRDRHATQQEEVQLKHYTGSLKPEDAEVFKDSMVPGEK

| melting point [°C] | Compound | inhibition at 0.01 µM (TRPV1 receptor) [%] |
| --- | --- | --- |
| 236 to 238 | Cc1nc2cc(NC(=O)c3cc4cccnc4n3-c3ccncc3)ccc2s1 |  |
|  | Cc1nc2cc(NC(=O)c3cc4cc(F)cnc4n3Cc3ccncc3)ccc2s1 [Compound 1, N-(2-methylbenzothiazol-5-yl)-5-fluoro-1-[(4-pyridyl)methyl]-1H-pyrrolo[2,3-b]pyridine-2-carboxamide] | 50 |
